Data from patent US20240091295A1, “PIPER NIGRUM COMPOSITION AND METHOD OF TREATING PAIN” (priority 2022, published 2024).

Tested on: mice
Assay: Acetic acid-induced writhing test
Type: in vivo
Settings: 30 mg/kg i.p., vs control group
Protocol: Male Balb/c mice procured from the authorized animal supplier Biogen Laboratory Animal Facility, Bangalore, India were used for the animal experiments. The animals were housed in the animal facility of R&D Center, Vidya Herbs Pvt Ltd under controlled environmental conditions (temperature: 23±2° C., relative humidity: 35-50%, 12 h light/dark cycle). The animals were given commercial pellet diet and water ad libitum. All the animals were allowed to acclimatize to the environmental conditions before the start of experiments. The experimental protocols were approved by the Institutional Animal Ethics Committee (IAEC) of Vidya Herbs Pvt Ltd., Bangalore, India (VHPL/PCL/IAEC/01/2021).
Twenty-four male mice were randomized to four groups (n=6 in each group): Control group were given normal saline solution while positive control group received reference drug Diclofenac sodium (30 mg/kg). Two test doses of the inventive composition (25 and 50 mg/kg body weight) were used in the test. All the treatments were intraperitoneally injected. 30 min after the respective treatments, the animals were given 10 mL/kg body weight of 1% acetic acid intraperitoneally. The number of writhes were recorded after 10 min of acetic acid administration.
All the experimental data were analyzed by one way ANOVA followed by Tukey's multiple comparison test using GraphPad Prism 9.0 (GraphPad Software, Inc.). […]

O=C(O)Cc1ccccc1Nc1c(Cl)cccc1Cl [diclofenac sodium, Diclofenac sodium]
writhing inhibition: 86.55%
